≈ marks a conversion by molar mass, not a printed value. Like-named read-outs stand apart in the source and are kept apart here.
Experiments:
[1] = system: E. coli strain MC1061; experiment: Duplicate screen of 1000 Maybridge compounds for growth inhibition; assay type: cell-based, Escherichia coli; conditions: 10 μL of 1 mM compound in 200 μL/well, 36 hours at 37° C., OD 600 nm
Protocol: In addition to proof of principle work using well-characterized antibiotics a preliminary screen against a 1000 compound, non-proprietary commercial library from Maybridge (Cornwall, England) was also done. First the identification of compounds with activity against E. coli by screening for inhibition of growth was done. […] To each test well 10 μL of screening compound (1 mM in DMSO) was added and the plate incubated for 36 hours at 37° C. with shaking (150 rpm) before reading the optical density (600 nm). […] The result of this duplicate screen was the identification of 15 compounds with statistically significant antibacterial activity.

[2] = system: E. coli strain MC1061; experiment: Retest minimum inhibitory concentration on LB-ST agar; conditions: Escherichia coli, MC1061, read-out: Retest Minimum Inhibitory Concentration
[3] = system: E. coli MC1061; experiment: Minimum inhibitory concentration determination in LB broth; assay type: cell-based, Escherichia coli
[4] = system: E. coli CW2553 containing pAK01 and pBAD18-folA (strain EB492); conditions: increasing DHFR expression from pBAD18-folA
[5] = target: T1, E. coli DHFR (Escherichia coli, UniProt P0ABQ4); experiment: DHF reductase activity assay of recombinant E. coli DHFR (decrease of NADPH at 340 nm); primary screen and IC50 determination; assay type: biochemical; conditions: true competitive inhibitor should equal 2.8
T1 construct: The gene was cloned lacking a stop codon into NdeI and XhoI digested pET26b to form pET26b-folA; made in house

[6] = target: T1, E. coli DHFR; experiment: Determination of kinetic inhibition constants; assay type: biochemical; conditions: NADPH 80 μM, dihydrofolate 10 to 300 μM, competitive inhibition
[7] = system: E. coli MC1061 clones harboring pGEM7-acrB; assay type: cell-based, Escherichia coli; conditions: from MIC in LB-Str-Amp, relative to E. coli MC1061 containing pGEM7
[8] = system: MC1061 transformed with the genomic library (the screening pool); assay type: cell-based, Escherichia coli; conditions: LB agar-ST; concentration lethal to MC1061
[9] = system: E. coli MC1061/pGEM7; experiment: microbe, parasite or virus in culture; assay type: cell-based, Escherichia coli; conditions: for MIC: Escherichia coli, MC1061/PGEM7, read-out: MIC, minimum growth inhibitory concentration
[10] = system: S. cerevisiae DL1 (His, Leu, Ura)/pGAL; experiment: MIC of compounds versus yeast; assay type: cell-based; conditions: Saccharomyces cerevisiae; agar plates, 72 hours, read visually
[11] = system: E. coli MC1061 harboring a multicopy genomic library cloned into pGEM7; experiment: Multicopy suppression selection with the selection pool, Example 5; assay type: cell-based, Escherichia coli; conditions: LB-Str-Amp agar, 10^5 cells
[12] = Escherichia coli, MC1061, 16 hr at 37° C., OD600 less than 0.1, read-out: MIC
[13] = 16 hr at 37° C., OD600 less than 0.1

Structure (SMILES) | Growth in Primary Screens, first value of the duplicate [1] [%] | Growth in Primary Screens, second value of the duplicate [1] [%] | MIC [2] [µg/mL] | MIC [3, 12] [µg/mL] | further results
Nc1nc(-c2ccc(-n3cccc3)cc2)cc(C(F)(F)F)n1 [BTB14887] | 37 | 30 | 125 (≈ 411 µM) | – | –
Cc1ccc(Sc2cccc3nc(N)nc(N)c23)cc1 [Compound 1] | – | – | – | 8 (≈ 28.3 µM) | –
Nc1nc(N)c2c(Sc3ccc(Cl)cc3)cccc2n1 [Compound 2] | – | – | – | 4 (≈ 13.2 µM) | MIC [3, 13]: 4.0 µg/mL (≈ 13.2 µM)
Nc1nc(N)c2c(Oc3ccc(F)cc3)cccc2n1 [Compound 3] | – | – | – | 16 (≈ 59.2 µM) | –
Cc1ccc(Oc2cccc3nc(N)nc(N)c23)cc1 [Compound 4] | – | – | – | 4 (≈ 15 µM) | dependence of the MIC on arabinose (inducer) concentration [4]: demonstrated an inducer dependence; MIC [3, 13]: 4.0 µg/mL (≈ 15 µM)
CC1CCc2c(N)nc(N)nc2C1 (stereo not drawn) [Compound 6] | – | – | – | 64 (≈ 359 µM) | IR, IC50 ratio (IC50 in the presence of 100 μM DHF) / (IC50 in the presence of 30 μM DHF) [5]: 2.3; Ki [6]: 1100 nM; fold suppression by pGEM7-acrB [7]: 4 fold
N[C@@H]1CON=C1O [Cycloserine, D-cycloserine] | – | – | – | – | growth inhibitory concentration to which clones isolated from the screening pool were resistant [8]: 160 µg/mL; MIC [9]: 80 µg/mL (≈ 784 µM)
OC(Cn1cncn1)(Cn1cncn1)c1ccc(F)cc1F [Fluconazole] | – | – | – | – | MIC [10]: 32 µg/mL
C[C@@H]1O[C@@H]1P(=O)(O)O [Fosfomycin] | – | – | – | – | growth inhibitory concentration to which clones isolated from the screening pool were resistant [8]: 320 µg/mL; MIC [9]: 80 µg/mL (≈ 579 µM)
O=C(Oc1c(Cl)cc(Cl)c2cccnc12)c1cccs1 [RH00852] | 2.7 | 2.8 | 16 (≈ 49.4 µM) | – | –
CSC(=N)NC(=S)Nc1cccc(Cl)c1 [RJF01047] | 6.0 | 12 | 125 (≈ 481 µM) | – | –
N#CC(C#N)=NNc1cc(C(F)(F)F)cc(C(F)(F)F)c1 [SEW04978] | 0.2 | 0.02 | 32 (≈ 105 µM) | – | growth inhibitory concentration to which clones isolated from the screening pool were resistant [8]: 64 µg/mL
Clc1ccc(Cc2n[nH]cc2Sc2ccc(Cl)cc2)cc1 [SPB04137] | 2.3 | 2.1 | 500 (≈ 1490 µM) | – | –
COc1cc(Cc2cnc(N)nc2N)cc(OC)c1OC [Trimethoprim] | – | – | – | 0.03 (≈ 0.103 µM) | concentration at which suppressor clones were evident [11]: 0.64 µg/mL; MIC [9]: 0.078 µg/mL (≈ 0.269 µM); MIC, minimum growth inhibitory concentration ([9]; LB agar containing ampicillin (50 μg/mL) and streptomycin (50 μg/mL)): 0.078 µg/mL (≈ 0.269 µM)

— US20050267136A1, “Method of inhibiting dihydrofolate reductase; screening assay for the identification of novel therapeutics and their cellular targets” (McMaster University, priority 2003, published 2005)
